Laboratory results as given in patent publication US20050113577A1, “Solid forms of slats with tyrosine kinase activity” (priority 2002, published 2005).
Values belong to the molecule of their own block, whether it stands above or below them.

Key:
[1] = Solid form stability in suspension/slurry (XRPD); type: physicochemical
Experimental: An X-ray powder diffraction pattern of Form A is indicative of a crystalline material with multiple diffraction peaks between 5° and 30° 2-theta.

human KDR = molecular target: T1, human KDR (Homo sapiens, UniProt P35968); experiment: VEGF Receptor Kinase Assay; type: biochemical; conditions: tested by the assays described (KDR, HUVEC, Flt-1, Flt-3); no values given
T1 construct: cloning the cytoplasmic domain of the KDR kinase as an in frame fusion at the carboxy terminus of the GST gene; made in house; host or cells: Spodoptera frugiperda (Sf21) insect cells, baculovirus vector pAcG2T
Experimental: Other assays are known in the literature and could be readily performed by those of skill in the art (see, for example, Dhanabal et al., Cancer Res. 59:189-197; Xin et al., J. Biol. Chem. 274:9116-9121; Sheu et al., Anticancer Res. 18:4435-4441; Ausprunk et al., Dev. Biol. 38:237-248; Gimbrone et al., J. Natl. Cancer Inst. 52:413-427; Nicosia et al., In Vitro 18:538-549).
VEGF receptor kinase activity is measured by incorporation of radio-labeled phosphate into polyglutarnic acid, tyrosine, 4:1 (pEY) substrate. The phosphorylated pEY product is trapped onto a filter membrane and the incorporation of radio-labeled phosphate quantified by scintillation counting.
The intracellular tyrosine kinase domains of human KDR (Tennan, B. I. et al. Oncogene (1991) vol. 6, pp. 1677-1683.) and Flt-1 (Shibuya, M. et al. Oncogene (1990) vol. 5, pp. 519-524) were cloned as glutathione S-transferase (GST) gene fusion proteins. This was accomplished by cloning the cytoplasmic domain of the KDR kinase as an in frame fusion at the carboxy terminus of the GST gene. Soluble recombinant GST-kinase domain fusion proteins were expressed in Spodoptera frugiperda (Sf21) insect cells (Invitrogen) using a baculovirus expression vector (pAcG2T, Pharmingen). […]

[2] = Solubility in various aqueous solvent systems measured for 20 hours; type: physicochemical
Experimental: [table] The solubility of Form A in various aqueous solvent systems was measured for a period of 20 hours.

[3] = Partition coefficient between 1-octanol and water; type: physicochemical; conditions: 1-octanol/water; pH (equilibrium) 3.8 (native); 0.033 mg/mL in aqueous phase at start
Experimental: Partition coefficient of Form A between I-octanol and water were determined at the native pH of the HCl Salt (Table III).

[4] = Solubility in water and organic solvents at room temperature (suspended for 7 days); type: physicochemical
Experimental: [table] The solubility of Form A HCl Salt at room temperature was determined in water and several organic solvents that can be used in pharmaceutical processing.

[5] = Hygroscopicity, step isotherm program 0 to 95% RH; type: physicochemical; conditions: 25° C.
Experimental: The hygroscopicity of Form A was determined at 25° C. using a step isotherm program for relative humidities from 0 to 95% RH under nitrogen flow.

T1 sequence (P35968 786-1356 limits assumed): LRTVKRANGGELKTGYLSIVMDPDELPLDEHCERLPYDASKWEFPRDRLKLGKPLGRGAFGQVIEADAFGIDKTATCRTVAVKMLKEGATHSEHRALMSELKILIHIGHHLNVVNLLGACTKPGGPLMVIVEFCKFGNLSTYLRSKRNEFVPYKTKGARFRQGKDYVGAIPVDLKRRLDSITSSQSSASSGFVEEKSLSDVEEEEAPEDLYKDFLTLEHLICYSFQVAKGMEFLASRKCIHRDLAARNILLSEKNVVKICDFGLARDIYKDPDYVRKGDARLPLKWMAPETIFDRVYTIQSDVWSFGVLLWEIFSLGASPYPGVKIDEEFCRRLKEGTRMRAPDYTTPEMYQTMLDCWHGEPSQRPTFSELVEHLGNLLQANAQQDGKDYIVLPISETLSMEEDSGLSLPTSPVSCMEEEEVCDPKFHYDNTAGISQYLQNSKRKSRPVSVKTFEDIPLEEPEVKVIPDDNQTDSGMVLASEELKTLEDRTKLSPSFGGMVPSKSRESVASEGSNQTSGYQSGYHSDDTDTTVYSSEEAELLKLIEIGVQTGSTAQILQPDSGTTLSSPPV

Solid form after slurry ([1]; slurry in water at room temperature for seven days): provided Form D crystalline solid
Structure (SMILES): CS(=O)(=O)N1CCN(Cc2ccc3[nH]c(-c4cc5ccccc5[nH]c4=O)cc3c2)CC1.Cl [Form E, hydrochloride salt of 3-[5-(4-methanesulfonyl-piperazin-1-ylmethyl)-1H-indol-2-yl]-1H-quinolin-2-one]

kinase inhibitory activity (human KDR): inhibits the kinase KDR
Structure (SMILES): CS(=O)(=O)N1CCN(Cc2ccc3[nH]c(-c4cc5ccccc5[nH]c4=O)cc3c2)CC1 [Compound 1-11, 3-[5-(4-Methanesulfonyl-piperazin-1-ylmethyl)-1H-indol-2-yl]-1H-quinolin-2-one]

Solubility ([2]; 10% EtOH): 380 µg/mL
Solubility ([2]; 10% IPA): 470 µg/mL
Solubility ([2]; 25% EtOH): 1060 µg/mL
Solubility ([2]; 25% IPA): 1780 µg/mL
Solubility ([2]; 50% Acetone): 10660 µg/mL
Solubility ([2]; 50% EtOH): 3820 µg/mL
Solubility ([2]; 50% IPA): 4390 µg/mL
Solubility ([2]; 75% EtOH): 3860 µg/mL
Solubility ([2]; 75% IPA): 2290 µg/mL
Solubility ([2]; Acetone): 61 µg/mL
log P (log Ko/w) [3]: −4.34
Solubility ([4]; Aqueous ETOH (50%)): 4340 µg/mL
Solubility ([4]; Aqueous IPA (50%)): 3990 µg/mL
Solubility ([4]; Ethanol): 130 µg/mL
Solubility ([4]; Isopropanol): 57 µg/mL
Solubility ([4]; Water): 260 µg/mL
Change in crystal structure (XRPD) ([1]; suspended in aqueous ethanol for seven days at RT): No change in crystal structure
Hygroscopicity ([5]; 0 to 95% RH under nitrogen flow): not hygroscopic
Moisture reversibly adsorbed ([5]; 75% RH): approximately 1%
Structure (SMILES): CS(=O)(=O)N1CCN(Cc2ccc3[nH]c(-c4cc5ccccc5[nH]c4=O)cc3c2)CC1.Cl [Form A, hydrochloride salt of 3-[5-(4-methanesulfonyl-piperazin-1-ylmethyl)-1H-indol-2-yl]-1H-quinolin-2-one]
